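Results reflect a 48-hour exposure of cells in 96-well plates to compound at five concentrations. At the GI50, growth is halved. Definition used: TGI = concentration required for complete inhibition of growth.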
What was measured:
Test in all cases: NCI anticancer screen, dose series, 48 h
HCT-15 colon = tested on: HCT-15 colon
LOX IMVI melanoma = tested on: LOX IMVI melanoma
OVCAR-3 ovarian = tested on: OVCAR-3 ovarian
OVCAR-8 ovarian = tested on: OVCAR-8 ovarian
SF-539 CNS = tested on: SF-539 CNS
SK-MEL-2 melanoma = tested on: SK-MEL-2 melanoma
SK-OV-3 ovarian = tested on: SK-OV-3 ovarian
SW-620 colon = tested on: SW-620 colon
UO-31 renal = tested on: UO-31 renal
NCI/ADR-RES ovarian = tested on: NCI/ADR-RES ovarian

Compound	TGI (HCT-15 colon) [µM]	TGI (LOX IMVI melanoma) [µM]	TGI (OVCAR-3 ovarian) [µM]	TGI (OVCAR-8 ovarian) [µM]	TGI (SF-539 CNS) [µM]	TGI (SK-MEL-2 melanoma) [µM]	TGI (SK-OV-3 ovarian) [µM]	TGI (SW-620 colon) [µM]	TGI (UO-31 renal) [µM]	GI50 (HCT-15 colon) [µM]	GI50 (LOX IMVI melanoma) [µM]	GI50 (NCI/ADR-RES ovarian) [µM]	TGI (NCI/ADR-RES ovarian) [µM]	GI50 (OVCAR-3 ovarian) [µM]	GI50 (OVCAR-8 ovarian) [µM]	GI50 (SF-539 CNS) [µM]	GI50 (SK-OV-3 ovarian) [µM]	GI50 (SW-620 colon) [µM]	GI50 (UO-31 renal) [µM]	GI50 (SK-MEL-2 melanoma) [µM]
CC(=O)O/N=C/c1ncccc1CO	> 100	> 100	> 100	> 100	> 100	> 100	> 100	> 100	> 100	–	–	–	–	–	–	–	–	–	–	–
N#CC(C#N)=C(N)/C(C#N)=C\c1ccnc2ccccc12	–	–	> 100	55.7	31.1	–	–	17.2	40.9	–	–	–	–	–	–	–	–	–	–	–
COc1ccc(/C=C/c2cc(OC)c(OC)c(OC)c2)cc1NC(=O)/C=C/c1ccc(F)cc1	> 100	> 100	6.23	> 100	7.86	–	0.782	> 100	> 100	4	6.15	1.19	6.38	2.43	3.37	2.88	0.0441	2.85	2.3	–
CC(=O)N/C(=C\c1ccc(/C=C(\NC(C)=O)c2nc3ccc(Cl)cc3[nH]2)cc1)c1nc2ccccc2[nH]1	> 100	–	> 100	> 100	> 100	> 100	> 100	> 100	–	–	–	–	–	–	–	–	–	–	–	–
O=C1C(Br)=C[C@H]2C3C=CC(Br)(C3=O)[C@@H]12 (some centres undefined)	24.6	–	27.1	26	39.4	28.4	> 100	21.1	31.1	–	–	–	–	–	–	–	–	–	–	–
NC(CCCCNC(=O)OCc1ccccc1)C(=O)NC(CCCCNC(=O)OCc1ccccc1)C(=O)ON1C(=O)CCC1=O (centres undefined)	> 100	–	–	> 100	–	> 100	–	> 100	> 100	–	–	–	–	–	–	–	–	–	–	–
COc1ccc(-c2c(C3=NCCN3)nnn2-c2ccccc2)cc1	> 100	> 100	> 100	> 100	> 100	> 100	> 100	> 100	> 100	–	–	–	–	–	–	–	–	–	–	–
C=CCCCCCCCCCCCC1CCC(CC)N1 (centres undefined)	12.9	24.5	23	–	25.3	29.5	31.6	24.6	23.8	–	–	–	–	–	–	–	–	–	–	–
CN(C)c1ccc(/C=C2\Oc3cc(O)ccc3C2=O)cc1	> 100	–	> 100	> 100	> 100	–	> 100	> 100	> 100	–	–	–	> 100	–	–	–	–	–	–	–
O=C(Nc1ccc(Cl)cc1)Nc1ccc(Cl)c(Cl)c1	62.5	> 100	> 100	> 100	60.4	32.8	–	> 100	10.1	2.92	3.39	3.6	> 100	3.31	5.02	2.96	–	3.95	2.32	3.07
COC1=CC23C=CC1[C@@H](c1ccccc1)C2=C(C)C(=O)N3C(=O)NC1CCCCC1 (some centres undefined)	29.1	31.2	59.8	64.6	39.2	39.5	93.5	47.8	54.7	–	–	–	–	–	–	–	–	–	–	–
